Legend:
Assay in all cases: Test B pre-/postemergence plant response
Format in all cases: in vivo
kochia (Kochia scoparia) = system: kochia (Kochia scoparia)
How it was run: (§1)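 Plants treated either at seeding (loam/sand soil) or postemergence at 2 to 18 cm height, using a surfactant-containing non-phytotoxic solvent formulation. Evaluation was visual after 13 to 15 days, 0 to 100 scale relative to controls.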

[1] = system: green foxtail (Setaria viridis)
How it was run: as §1

[2] = system: ragweed (common ragweed, Ambrosia elatior)
How it was run: as §1

[3] = system: pigweed (Amaranthus retroflexus)
How it was run: as §1

[4] = system: cocklebur (Xanthium strumarium)
How it was run: as §1

wild oat (Avena fatua) = system: wild oat (Avena fatua)
How it was run: as §1

[5] = system: lambsquarters (Chenopodium album)
How it was run: as §1

[6] = system: bermudagrass (Cynodon dactylon)
How it was run: as §1

[7] = 62 g ai/ha, postemergence, 0 is no effect, 100 is complete control, 13 to 15 days

## O=C1CCCC(O)=C1C(=O)c1cnc(-c2ccccc2)n(C2CCCCC2)c1=O [Compound 128, 3-cyclohexyl-5-[(2-hydroxy-6-oxo-1-cyclohexen-1-yl)carbonyl]-2-phenyl-4(3H)-pyrimidinone]
Kochia (Kochia scoparia); [7]
  Kochia plant response rating (0 to 100 scale): 85
Kochia (Kochia scoparia); Bassia scoparia, post-emergence, Postemergence, 31 g ai/ha, 0 to 100 scale (0 no effect, 100 complete control), read-out: Plant response rating, Kochia
  pest or weed control at 31 g/ha: 60%
Kochia (Kochia scoparia); Bassia scoparia, post-emergence, Postemergence, 125 g ai/ha, scale 0 to 100 (0 no effect, 100 complete control), read-out: Plant response rating, Kochia
  pest or weed control at 125 g/ha: 95%
Kochia (Kochia scoparia); Bassia scoparia, post-emergence, Postemergence, 250 g ai/ha, scale 0 to 100 (0 no effect, 100 complete control), 13 to 15 days, read-out: Plant response rating, Kochia
  pest or weed control at 250 g/ha: 98%
[1]; [7]
  Foxtail, Green plant response rating (0 to 100 scale): 95
[1]; Setaria viridis, post-emergence, Postemergence, 31 g ai/ha, 0 to 100 scale (0 no effect, 100 complete control), read-out: Plant response rating, Foxtail, Green
  pest or weed control at 31 g/ha: 85%
[1]; Setaria viridis, post-emergence, Postemergence, 125 g ai/ha, scale 0 to 100 (0 no effect, 100 complete control), read-out: Plant response rating, Foxtail, Green
  pest or weed control at 125 g/ha: 95%
[1]; Setaria viridis, post-emergence, Postemergence, 250 g ai/ha, scale 0 to 100 (0 no effect, 100 complete control), 13 to 15 days, read-out: Plant response rating, Foxtail, Green
  pest or weed control at 250 g/ha: 98%
[2]; [7]
  Ragweed plant response rating (0 to 100 scale): 85
[2]; Ambrosia artemisiifolia, post-emergence, 360 h, Postemergence, 31 g ai/ha, 0 to 100 scale (0 no effect, 100 complete control), read-out: Plant response rating, Ragweed
  pest or weed control at 31 g/ha: 85%
[2]; Ambrosia artemisiifolia, post-emergence, 360 h, Postemergence, 125 g ai/ha, scale 0 to 100 (0 no effect, 100 complete control), read-out: Plant response rating, Ragweed
  pest or weed control at 125 g/ha: 95%
[2]; Ambrosia artemisiifolia, post-emergence, 360 h, Postemergence, 250 g ai/ha, scale 0 to 100 (0 no effect, 100 complete control), 13 to 15 days, read-out: Plant response rating, Ragweed
  pest or weed control at 250 g/ha: 98%
[3]; [7]
  Pigweed plant response rating (0 to 100 scale): 98
[3]; Amaranthus retroflexus, post-emergence, Postemergence, 31 g ai/ha, 0 to 100 scale (0 no effect, 100 complete control), read-out: Plant response rating, Pigweed
  pest or weed control at 31 g/ha: 95%
[3]; Amaranthus retroflexus, post-emergence, Postemergence, 125 g ai/ha, scale 0 to 100 (0 no effect, 100 complete control), read-out: Plant response rating, Pigweed
  pest or weed control at 125 g/ha: 98%
[3]; Amaranthus retroflexus, post-emergence, Postemergence, 250 g ai/ha, scale 0 to 100 (0 no effect, 100 complete control), 13 to 15 days, read-out: Plant response rating, Pigweed
  pest or weed control at 250 g/ha: 100%
[4]; [7]
  Cocklebur plant response rating (0 to 100 scale): 98
[4]; Xanthium strumarium, post-emergence, Postemergence, 31 g ai/ha, 0 to 100 scale (0 no effect, 100 complete control), read-out: Plant response rating, Cocklebur
  pest or weed control at 31 g/ha: 98%
[4]; Xanthium strumarium, post-emergence, Postemergence, 125 g ai/ha, scale 0 to 100 (0 no effect, 100 complete control), read-out: Plant response rating, Cocklebur
  pest or weed control at 125 g/ha: 100%
[4]; Xanthium strumarium, post-emergence, Postemergence, 250 g ai/ha, scale 0 to 100 (0 no effect, 100 complete control), 13 to 15 days, read-out: Plant response rating, Cocklebur
  pest or weed control at 250 g/ha: 100%
Wild oat (Avena fatua); [7]
  Oat, Wild plant response rating (0 to 100 scale): 50
Wild oat (Avena fatua); Avena fatua, post-emergence, Postemergence, 31 g ai/ha, 0 to 100 scale (0 no effect, 100 complete control), read-out: Plant response rating, Oat, Wild
  pest or weed control at 31 g/ha: 40%
Wild oat (Avena fatua); Avena fatua, post-emergence, Postemergence, 125 g ai/ha, scale 0 to 100 (0 no effect, 100 complete control), read-out: Plant response rating, Oat, Wild
  pest or weed control at 125 g/ha: 60%
Wild oat (Avena fatua); Avena fatua, post-emergence, Postemergence, 250 g ai/ha, scale 0 to 100 (0 no effect, 100 complete control), 13 to 15 days, read-out: Plant response rating, Oat, Wild
  pest or weed control at 250 g/ha: 80%
[5]; [7]
  Lambsquarters plant response rating (0 to 100 scale): 98
[5]; Chenopodium album, post-emergence, Postemergence, 31 g ai/ha, 0 to 100 scale (0 no effect, 100 complete control), read-out: Plant response rating, Lambsquarters
  pest or weed control at 31 g/ha: 95%
[5]; Chenopodium album, post-emergence, Postemergence, 125 g ai/ha, scale 0 to 100 (0 no effect, 100 complete control), read-out: Plant response rating, Lambsquarters
  pest or weed control at 125 g/ha: 100%
[5]; Chenopodium album, post-emergence, Postemergence, 250 g ai/ha, scale 0 to 100 (0 no effect, 100 complete control), 13 to 15 days, read-out: Plant response rating, Lambsquarters
  pest or weed control at 250 g/ha: 100%
[6]; [7]
  Bermudagrass plant response rating (0 to 100 scale): 85
[6]; Cynodon dactylon, post-emergence, Postemergence, 31 g ai/ha, 0 to 100 scale (0 no effect, 100 complete control), read-out: Plant response rating, Bermudagrass
  pest or weed control at 31 g/ha: 75%
[6]; Cynodon dactylon, post-emergence, Postemergence, 125 g ai/ha, scale 0 to 100 (0 no effect, 100 complete control), read-out: Plant response rating, Bermudagrass
  pest or weed control at 125 g/ha: 98%
[6]; Cynodon dactylon, post-emergence, Postemergence, 250 g ai/ha, scale 0 to 100 (0 no effect, 100 complete control), 13 to 15 days, read-out: Plant response rating, Bermudagrass
  pest or weed control at 250 g/ha: 100%

From patent publication US8952024B2, “Herbicidal pyrimidone derivatives” (E I du Pont de Nemours and Company, priority 2009, dated 2015)
